# In paper PMC6199744, “Development of Chemical Proteomics for the Folateome and Analysis of the Kinetoplastid Folateome” (ACS Infectious Diseases, 2018):
# Where two headings read alike, the source gives them in different places.
# How the values were obtained:
# Type in all cases: binding
# [1] = target: T1, HeLa cell extract proteins (Homo sapiens, UniProt Q01813)
# T1 construct: endogenous in cells; host or cells: HeLa cell extract
# T1 sequence (Q01813 1-784): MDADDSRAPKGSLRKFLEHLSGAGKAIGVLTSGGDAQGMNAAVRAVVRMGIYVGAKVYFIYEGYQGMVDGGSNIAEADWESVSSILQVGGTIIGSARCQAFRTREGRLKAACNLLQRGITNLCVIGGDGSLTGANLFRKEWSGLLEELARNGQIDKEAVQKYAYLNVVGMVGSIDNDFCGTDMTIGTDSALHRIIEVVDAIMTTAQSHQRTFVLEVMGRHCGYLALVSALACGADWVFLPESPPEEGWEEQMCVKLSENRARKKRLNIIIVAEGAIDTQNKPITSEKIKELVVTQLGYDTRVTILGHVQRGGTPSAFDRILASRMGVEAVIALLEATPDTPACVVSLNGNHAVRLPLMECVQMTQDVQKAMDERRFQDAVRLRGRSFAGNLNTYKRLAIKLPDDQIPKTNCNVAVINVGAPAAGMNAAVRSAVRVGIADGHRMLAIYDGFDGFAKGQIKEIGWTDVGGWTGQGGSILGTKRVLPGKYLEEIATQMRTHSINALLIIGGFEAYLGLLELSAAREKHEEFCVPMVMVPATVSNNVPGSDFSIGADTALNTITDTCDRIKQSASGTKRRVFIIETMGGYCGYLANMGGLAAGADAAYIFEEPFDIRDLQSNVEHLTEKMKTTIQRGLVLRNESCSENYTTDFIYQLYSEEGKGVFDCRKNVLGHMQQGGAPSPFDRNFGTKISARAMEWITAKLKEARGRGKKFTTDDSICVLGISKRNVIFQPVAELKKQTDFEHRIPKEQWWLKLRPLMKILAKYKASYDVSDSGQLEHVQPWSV
# [2] = target: T2, HeLa cell extract proteins (Homo sapiens, UniProt P53396)
# T2 construct: endogenous in cells; host or cells: HeLa cell extract
# T2 sequence (P53396 1-1101): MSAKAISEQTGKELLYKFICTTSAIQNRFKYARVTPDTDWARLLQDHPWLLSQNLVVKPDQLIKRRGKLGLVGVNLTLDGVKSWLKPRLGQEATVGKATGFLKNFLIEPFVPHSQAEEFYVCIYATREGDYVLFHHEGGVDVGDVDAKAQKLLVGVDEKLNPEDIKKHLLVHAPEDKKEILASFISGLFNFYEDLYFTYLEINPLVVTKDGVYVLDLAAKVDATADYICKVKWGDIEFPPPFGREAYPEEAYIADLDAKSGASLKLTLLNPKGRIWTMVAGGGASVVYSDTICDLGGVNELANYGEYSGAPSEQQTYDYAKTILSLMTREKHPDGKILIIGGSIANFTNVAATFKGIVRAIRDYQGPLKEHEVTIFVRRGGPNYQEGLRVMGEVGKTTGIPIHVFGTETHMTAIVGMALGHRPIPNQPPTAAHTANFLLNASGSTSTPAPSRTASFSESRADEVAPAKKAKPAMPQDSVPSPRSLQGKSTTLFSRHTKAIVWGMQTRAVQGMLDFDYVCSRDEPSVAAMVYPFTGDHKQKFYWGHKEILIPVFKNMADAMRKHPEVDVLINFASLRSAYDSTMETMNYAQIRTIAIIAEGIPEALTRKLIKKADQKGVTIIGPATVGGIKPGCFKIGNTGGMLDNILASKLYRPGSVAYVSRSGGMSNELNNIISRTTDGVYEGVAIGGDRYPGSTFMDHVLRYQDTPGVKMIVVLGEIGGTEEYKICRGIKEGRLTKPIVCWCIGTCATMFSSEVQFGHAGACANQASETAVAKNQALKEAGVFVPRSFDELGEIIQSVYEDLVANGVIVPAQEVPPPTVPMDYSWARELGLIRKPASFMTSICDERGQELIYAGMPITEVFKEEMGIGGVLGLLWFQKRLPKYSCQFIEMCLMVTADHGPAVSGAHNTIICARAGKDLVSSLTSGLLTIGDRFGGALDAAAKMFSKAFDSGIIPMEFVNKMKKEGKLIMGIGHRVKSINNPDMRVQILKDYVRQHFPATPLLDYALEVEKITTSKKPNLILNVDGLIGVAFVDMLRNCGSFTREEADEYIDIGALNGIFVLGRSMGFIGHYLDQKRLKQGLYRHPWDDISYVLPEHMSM
# [3] = target: T3, HeLa cell extract proteins (Homo sapiens, UniProt P11021)
# T3 construct: endogenous in cells; host or cells: HeLa cell extract
# T3 sequence (P11021 19-654): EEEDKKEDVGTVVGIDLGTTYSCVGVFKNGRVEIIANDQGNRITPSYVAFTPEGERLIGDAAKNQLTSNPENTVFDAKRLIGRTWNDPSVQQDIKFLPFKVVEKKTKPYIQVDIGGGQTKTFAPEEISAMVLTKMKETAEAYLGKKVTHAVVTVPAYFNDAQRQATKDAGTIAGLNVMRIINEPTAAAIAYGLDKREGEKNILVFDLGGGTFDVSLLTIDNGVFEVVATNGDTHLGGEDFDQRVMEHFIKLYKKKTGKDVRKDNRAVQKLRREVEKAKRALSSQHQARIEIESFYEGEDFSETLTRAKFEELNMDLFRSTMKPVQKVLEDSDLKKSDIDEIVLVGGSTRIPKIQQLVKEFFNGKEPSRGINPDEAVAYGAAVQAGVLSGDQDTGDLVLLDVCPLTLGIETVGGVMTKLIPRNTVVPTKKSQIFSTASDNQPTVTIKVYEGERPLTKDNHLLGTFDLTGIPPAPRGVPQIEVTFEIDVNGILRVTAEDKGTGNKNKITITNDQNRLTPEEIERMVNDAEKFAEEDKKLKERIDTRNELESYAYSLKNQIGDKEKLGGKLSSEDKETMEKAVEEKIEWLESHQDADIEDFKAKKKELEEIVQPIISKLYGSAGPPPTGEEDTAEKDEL
# [4] = target: T4, HeLa cell extract proteins (Homo sapiens, UniProt P53992)
# T4 construct: endogenous in cells; host or cells: HeLa cell extract
# T4 sequence (P53992 1-1094): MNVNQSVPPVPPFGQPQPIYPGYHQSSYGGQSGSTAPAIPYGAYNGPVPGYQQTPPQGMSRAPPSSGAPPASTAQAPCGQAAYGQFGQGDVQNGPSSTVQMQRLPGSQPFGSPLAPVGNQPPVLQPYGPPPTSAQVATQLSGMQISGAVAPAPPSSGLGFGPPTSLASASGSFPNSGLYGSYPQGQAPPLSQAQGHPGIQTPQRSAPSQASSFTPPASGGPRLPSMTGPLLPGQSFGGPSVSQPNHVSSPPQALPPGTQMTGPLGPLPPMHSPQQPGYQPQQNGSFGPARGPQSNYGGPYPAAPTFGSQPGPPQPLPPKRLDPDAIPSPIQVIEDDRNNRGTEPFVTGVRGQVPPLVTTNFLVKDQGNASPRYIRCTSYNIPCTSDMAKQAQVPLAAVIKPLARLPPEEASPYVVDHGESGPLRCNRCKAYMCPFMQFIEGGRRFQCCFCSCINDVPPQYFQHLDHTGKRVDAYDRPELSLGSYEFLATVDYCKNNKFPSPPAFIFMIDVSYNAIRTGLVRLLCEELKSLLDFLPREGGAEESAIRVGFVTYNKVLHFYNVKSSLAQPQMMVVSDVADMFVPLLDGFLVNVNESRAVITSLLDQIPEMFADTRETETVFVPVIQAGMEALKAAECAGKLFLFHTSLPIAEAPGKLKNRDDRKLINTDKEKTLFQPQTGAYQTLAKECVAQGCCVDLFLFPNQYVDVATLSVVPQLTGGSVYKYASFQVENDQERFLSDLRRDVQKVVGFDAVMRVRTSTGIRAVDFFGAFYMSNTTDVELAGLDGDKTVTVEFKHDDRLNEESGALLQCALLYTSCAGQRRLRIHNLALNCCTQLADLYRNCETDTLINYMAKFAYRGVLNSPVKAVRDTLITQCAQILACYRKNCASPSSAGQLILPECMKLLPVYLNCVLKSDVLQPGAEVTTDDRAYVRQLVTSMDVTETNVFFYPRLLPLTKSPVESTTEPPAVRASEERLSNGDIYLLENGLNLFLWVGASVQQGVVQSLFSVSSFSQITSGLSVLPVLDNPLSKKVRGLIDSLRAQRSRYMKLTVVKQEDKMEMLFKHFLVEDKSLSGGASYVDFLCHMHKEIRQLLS
SMILES,"fold changes relative to vehicle control ([1]; captured protein PFKP, HeLa)","fold changes relative to vehicle control ([2]; protein ACLY, HeLa)","fold changes relative to vehicle control ([3]; protein HSPA5, HeLa)","fold changes relative to vehicle control ([4]; protein SEC24C, HeLa)","fold changes relative to vehicle control ([1]; HeLa, protein PFKP)","fold changes relative to vehicle control ([2]; HeLa, protein ACLY)","fold changes relative to vehicle control ([3]; HeLa, captured protein HSPA5)","fold changes relative to vehicle control ([4]; HeLa, protein SEC24C)",other results
Nc1nc2cccc(-c3ccccc3)c2n1Cc1ccc(Cl)c(Cl)c1 [compound 3],1.02,1.2,0.99,1.28,–,–,–,–,–
CCCCCCOc1ccc(Cc2cnc(N)nc2N)cc1 [compound 1],1.05,1.25,0.96,1.03,–,–,–,–,–
NCCCNc1ccc(C(=O)NC(CCC(=O)O)C(=O)O)cc1 (stereo not shown) [compound 7],–,–,–,–,0.93,1.04,1,1.14,–
CCCCCCOc1cccc(Cc2cnc(N)nc2N)c1 [compound 2],1.01,1.99,1.12,1.01,–,–,–,–,–
NCCOCCOCC(=O)Nc1nc2ncc(CNc3ccc(C(=O)NC(CCC(=O)O)C(=O)O)cc3)nc2c(=O)[nH]1 (stereo not shown) [compound 6],–,–,–,–,0.95,1.19,1,0.92,–
"Nc1nc2[nH]cc(CCc3ccc(C(=O)N[C@@H](CCC(=O)O)C(=O)O)cc3)c2c(=O)[nH]1 [PTX, pemetrexed]",–,–,–,–,–,–,–,–,fold changes relative to vehicle control [1]: 0.9; fold changes relative to vehicle control [2]: 1.1; fold changes relative to vehicle control [3]: 1.03; fold changes relative to vehicle control [4]: 0.96
"Nc1nc2c(c(=O)[nH]1)N(C=O)C(CNc1ccc(C(=O)N[C@@H](CCC(=O)O)C(=O)O)cc1)CN2 (stereo partly shown) [LEU, leucovorin]",–,–,–,–,0.88,1.04,1.06,0.98,–
